Patent publication US20090226500A1, “SUTURES AND ANTI-SCARRING AGENTS” (Angiotech Pharmaceuticals, Inc, priority 2006, published 2009)
“Also recorded” adds a separate entry of the source.

Assays:
collagenase (MMP-1) = assay: IL-1 induced collagenase (MMP-1) mRNA expression in chondrocytes; assay type: cell-based, calf
Experimental: (§1) Cells were treated with paclitaxel at various concentrations (10^−7 to 10^−5 M) for 24 hours, then treated with IL-1β (20 ng/ml) for additional 18 hours in the presence of paclitaxel. Total RNA was isolated, and the MMP-1 mRNA levels were determined by Northern blot analysis. The blots were subsequently stripped and re-probed with ^32P-radiolabeled rat GAPDH cDNA, which was used as a housekeeping gene. The results shown are representative of four independent experiments (FIG. 10D). Quantitation of collagenase-1 and stromelysin-expression mRNA levels were conducted. The MMP-1 and MMP-3 expression levels were normalized with GAPDH.
Primary chondrocyte cultures were freshly isolated from calf cartilage. The cells were plated at 2.5×10^6 per ml in 100×20 mm culture dishes and incubated in Ham's F12 medium containing 5% FBS overnight at 37° C. The cells were starved in serum-free medium overnight and then treated with anti-microtubule agents at various concentrations for 6 hours. IL-1 (20 ng/ml) was then added to each plate and the plates incubated for an additional 18 hours. Total RNA was isolated by the acidified guanidine isothiocyanate method and subjected to electrophoresis on a denatured gel Denatured RNA samples (15 μg) were analyzed by gel electrophoresis in a 1% denatured gel, transferred to a nylon membrane and hydridized with the ^32P-labeled collagenase cDNA probe. ^32P-labeled glyceraldehyde phosphate […] (GAPDH) cDNA was used as an internal standard to ensure roughly equal loading. The exposed films were scanned and quantitatively analyzed with IMAGEQUANT.

[1] = system: CAM vasculature (angiogenesis); assay: Chick chorioallantoic membrane (CAM) assay; conditions: for Inhibition/n: 48 hours
Smooth muscle cells = assay: Proliferation of smooth muscle cells; assay type: cell-based; conditions: 72 hours, CYQUANT; read-out: IC50 proliferation of smooth muscle cells
Outline: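 Smooth muscle cells at 600 cells/well, exposed to paclitaxel (DMSO stocks 10^−8 to 10^−2 M) in triplicate for 72 h at 37 °C. Proliferation read with CyQUANT GR dye in lysis buffer.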

[2] = system: murine RAW 264.7 macrophage cell line; assay: Proliferation of murine RAW 264.7 macrophage cell line; assay type: cell-based; conditions: Mus musculus, RAW264.7
[3] = system: Primary human smooth muscle cells; assay: Smooth muscle cell migration; assay type: cell-based; conditions: chemotaxis to rhPDGF-BB 10 ng/ml, 4 hours
Experimental: Primary human smooth muscle cells were starved of serum in smooth muscle cell basal media containing insulin and human basic fibroblast growth factor (bFGF) for 16 hours prior to the assay. For the migration assay, cells were trypsinized to remove cells from flasks, washed with migration media and diluted to a concentration of 2-2.5×10^5 cells/ml in migration media. Migration media consists of phenol red free Dulbecco's Modified Eagle Medium (DMEM) containing 0.35% human serum albumin. A 100 μL volume of smooth muscle cells (approximately 20,000-25,000 cells) was added to the top of a Boyden chamber assembly (Chemicon QCM CHEMOTAXIS 96-well migration plate). To the bottom wells, the chemotactic agent, recombinant human platelet derived growth factor (rhPDGF-BB) was added at a concentration of 10 ng/ml in a total volume of 150 μL. Paclitaxel was prepared in DMSO at a concentration of 10^−2 M and serially diluted 10-fold to give a range of stock concentrations (10^−8 M to 10^−2 M). […]
At the end of the 4-hour period, cells in the top chamber were discarded and the smooth muscle cells attached to the underside of the filter were detached for 30 minutes at 37° C. in Cell Detachment Solution (Chemicon). […] Fluorescence was read in a fluorescence microplate reader at ˜480 nm excitation wavelength and ˜520 nm emission maxima. […]

stromelysin (MMP-3) = assay: IL-1 induced stromelysin (MMP-3) mRNA expression in chondrocytes; assay type: cell-based
Experimental: as §1

AP-1 [4] = assay: IL-1 induced AP-1 DNA binding activity (gel mobility shift); assay type: cell-based; conditions: chondrocyte lysates, pretreated 10^−7 to 10^−5 M for 24 hours
Experimental: Binding activity was assayed with a radiolabeled human AP-1 sequence probe and gel mobility shift assay. Extracts from chondrocytes untreated or treated with various amounts of paclitaxet (10^−7 to 10^−5 M) followed by IL-1β (20 ng/ml) were incubated with excess probe on ice for 30 minutes, followed by non-denaturing gel electrophoresis (FIG. 10B). The “com” lane contains excess unlabeled AP-1 oligonucleotide. The results shown are representative of three independent experiments.

human fibroblasts = assay: Cell proliferation of fibroblasts; assay type: cell-based; conditions: Fibroblast, 72 hours, CYQUANT, read-out: IC50 cell proliferation of fibroblasts
Outline: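 Human fibroblasts plated at 600 cells/well, attached overnight, then exposed to drug in triplicate for 72 h at 37°C. Cell content read with CYQUANT GR dye in lysis buffer after 3-5 min at room temperature.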

AP-1 [5] = assay: IL-1 stimulated AP-1 transcriptional activity (CAT reporter) in chondrocytes; assay type: cell-based; conditions: 10^−7 to 10^−5 M

- IL-1 induced collagenase mRNA levels (collagenase (MMP-1); at 10^−5 M): complete inhibition
- IC50 [3]: 0.76 nM
- IL-1 induced AP-1 binding activity (AP-1 [4]): decreased
Structure (SMILES): CC(=O)O[C@H]1C(=O)[C@@]2(C)[C@H]([C@H](OC(=O)c3ccccc3)[C@]3(O)C[C@H](OC(=O)[C@H](O)[C@@H](NC(=O)c4ccccc4)c4ccccc4)C(C)=C1C3(C)C)[C@]1(OC(C)=O)CO[C@@H]1C[C@@H]2O [paclitaxel, 5β,20-epoxy-1,2 alpha,4,7β,10β,13 alpha-hexahydroxytax-11-en-9-one-4,10-diacetate-2-benzoate-13-(alpha-phenylhippurate)]
- concentration that inhibits IL-1-induced collagenase expression (collagenase (MMP-1); chondrocytes in vitro): 10^−6 M
- IL-1 induced collagenase mRNA levels (collagenase (MMP-1); chondrocytes, pretreatment before IL-1): significantly reduced; also recorded: inhibited
- Inhibition/n ([1]; 0.25 μg in methylcellulose (10 μl)): 2/11
- Inhibition/n ([1]; 0.5 μg in methylcellulose (10 μl)): 6/11
- Inhibition/n ([1]; 1 μg in methylcellulose (10 μl)): 6/15
- Inhibition/n ([1]; 5 μg in methylcellulose (10 μl)): 20/27
- Inhibition/n ([1]; 10 μg in methylcellulose (10 μl)): 16/21
- Inhibition/n ([1]; 30 μg in methylcellulose (10 μl)): 31/31
- angiogenesis ([1]; 48 hours after application to the CAM): inhibited
- avascular gradient scale ([1]; maximal avascular zone within 48 hours, depending on concentration): 3
- IC50 (Smooth muscle cells): 7 nM
- IC50 [2]: 134 nM
- IL-1 induced stromelysin mRNA levels (stromelysin (MMP-3); at 10^−5 M): complete inhibition
- concentration that inhibits stromelysin expression (stromelysin (MMP-3); chondrocytes in vitro): 10^−6 M
- IL-1 induced stromelysin mRNA levels (stromelysin (MMP-3); chondrocytes, pretreatment for 24 hours): significantly reduced; also recorded: inhibited
- IC50 (human fibroblasts): 10 to 100 nM
- IL-1 induced AP-1 reporter gene CAT activity (AP-1 [5]): decreased CAT activity in a concentration dependent manner; also recorded: reduced
